Data from patent US20240158370A1, “CK1 alpha AND DUAL CK1 alpha / GSPT1 DEGRADING COMPOUNDS” (Innovo Therapeutics, Inc., priority 2022, published 2024).

Tests used:
CK1α = biological target: T1, CK1α (Homo sapiens, UniProt P48729+Q96SW2); experiment: HiBiT degradation assay, CK1α, Procedure A; assay type: cell-based; settings: six hours
T1 construct: CSNK1A1-HiBit KI HEK293(LgBit) Cells; host or cells: HEK293(LgBit) knock-in cells
Summary of the method: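 Cells in DMEM+10% FBS at 1×10^6 cells/ml were added to pre-spotted compound (10-point dose response, 10 μM to 0.005 μM, 0.1% DMSO) and incubated 6 h at 37° C. Nano-Glo HiBiT lytic reagent was added and luminescence read. DC50 and Ymin came from 4-parameter curve fits.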

GSPT1 = GSPT1 (Homo sapiens, UniProt P15170+Q96SW2); experiment: HiBiT degradation assay, GSPT1, Procedure B (Molt 4_hGSPT1_HiBIT cells); assay type: cell-based; set-up: Molt 4_hGSPT1_HiBIT N-terminus tagged cells were generated using CRISPR technology; endogenous in cells; host or cells: Molt 4 cells, CRISPR-edited; settings: six hours
Procedure: Molt 4_hGSPT1_HiBIT N-terminus tagged cells were generated using CRISPR technology. Cells were maintained in RPMI media (Thermo Fisher Scientific, Catalog #11875-093) containing 10% Fetal Bovine Serum (Thermo Fisher Scientific, Catalog #16140071) 1% Penicillin-Streptomycin (Thermo Fisher Scientific, Catalog #25200056). Cells were maintained at 37° C. in a 5% CO2 environment.
Compounds were spotted onto Cornin 384-Well, Cell Culture-Treated, Flat-Bottom, Low Flange Microplate (Fisher Scientific, Catalog #07-201-013) using a Tecan D300e digital dispenser. Ten-point dose response curves spanning from 10 μM to 0.005 μM with a 0.1% DMSO tolerance were used.
Cells were centrifuged for 5 minutes at 1200 RPMs. Cell culture media was aspirated off and cells were resuspended with RPMI+10% FBS. Cell density was determined using a Denovix CellDrop BF cell counter. Cell density was adjusted to 1×10^6 cells/ml. 40 μl of cells was added to compound treated tissue culture plates and incubated for six hours at 37° C. After six hours, cell culture plates were removed from tissue culture incubator and cooled to room temperature. 40 μl of Nano-GloHiBiT Lytic Detection Reagent (Promega, Catalog #N3040) was added to each well. Plates were placed on an orbital shaker (600 rpm) for 20 minutes. Luminescence was measured using an Envsion plate reader (Perkin Elmer). IC50 curves and Ymin were generated using a 4-parameter curve fit with GraphPad Prism software (Prism Corporation).
Results from the HiBiT assay (DC50 (nM) and Ymin (% remaining)) are shown below. All CK1α data was generated according to Procedure A. GSPT1 data for Examples 1-600, 603-620 and 703-705 was generated according to Procedure A. GSPT1 data for Examples 601, 621-702 and 706-735 was generated according to Procedure B.

T1 sequence (P48729 whole entry): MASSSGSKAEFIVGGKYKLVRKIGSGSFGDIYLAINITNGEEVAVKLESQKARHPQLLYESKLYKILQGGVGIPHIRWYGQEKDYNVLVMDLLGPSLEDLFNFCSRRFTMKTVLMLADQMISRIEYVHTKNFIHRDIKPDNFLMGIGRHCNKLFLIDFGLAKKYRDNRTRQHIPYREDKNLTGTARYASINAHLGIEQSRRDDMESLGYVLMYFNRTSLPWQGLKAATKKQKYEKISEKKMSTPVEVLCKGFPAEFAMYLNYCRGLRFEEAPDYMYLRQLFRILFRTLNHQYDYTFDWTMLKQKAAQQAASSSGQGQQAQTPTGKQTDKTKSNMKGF
T1 sequence (Q96SW2 whole entry): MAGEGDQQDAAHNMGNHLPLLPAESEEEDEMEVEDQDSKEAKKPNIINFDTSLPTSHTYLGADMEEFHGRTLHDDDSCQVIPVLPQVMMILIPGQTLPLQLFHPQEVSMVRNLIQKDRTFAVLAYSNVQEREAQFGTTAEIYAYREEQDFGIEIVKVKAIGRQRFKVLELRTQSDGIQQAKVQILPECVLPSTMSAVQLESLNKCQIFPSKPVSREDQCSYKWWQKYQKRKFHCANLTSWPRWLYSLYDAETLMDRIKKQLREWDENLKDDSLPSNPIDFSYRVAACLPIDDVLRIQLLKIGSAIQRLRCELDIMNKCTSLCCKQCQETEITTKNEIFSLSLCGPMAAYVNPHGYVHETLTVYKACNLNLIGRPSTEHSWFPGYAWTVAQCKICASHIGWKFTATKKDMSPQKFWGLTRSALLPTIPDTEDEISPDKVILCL
T1 sequence (Q16531 whole entry partner): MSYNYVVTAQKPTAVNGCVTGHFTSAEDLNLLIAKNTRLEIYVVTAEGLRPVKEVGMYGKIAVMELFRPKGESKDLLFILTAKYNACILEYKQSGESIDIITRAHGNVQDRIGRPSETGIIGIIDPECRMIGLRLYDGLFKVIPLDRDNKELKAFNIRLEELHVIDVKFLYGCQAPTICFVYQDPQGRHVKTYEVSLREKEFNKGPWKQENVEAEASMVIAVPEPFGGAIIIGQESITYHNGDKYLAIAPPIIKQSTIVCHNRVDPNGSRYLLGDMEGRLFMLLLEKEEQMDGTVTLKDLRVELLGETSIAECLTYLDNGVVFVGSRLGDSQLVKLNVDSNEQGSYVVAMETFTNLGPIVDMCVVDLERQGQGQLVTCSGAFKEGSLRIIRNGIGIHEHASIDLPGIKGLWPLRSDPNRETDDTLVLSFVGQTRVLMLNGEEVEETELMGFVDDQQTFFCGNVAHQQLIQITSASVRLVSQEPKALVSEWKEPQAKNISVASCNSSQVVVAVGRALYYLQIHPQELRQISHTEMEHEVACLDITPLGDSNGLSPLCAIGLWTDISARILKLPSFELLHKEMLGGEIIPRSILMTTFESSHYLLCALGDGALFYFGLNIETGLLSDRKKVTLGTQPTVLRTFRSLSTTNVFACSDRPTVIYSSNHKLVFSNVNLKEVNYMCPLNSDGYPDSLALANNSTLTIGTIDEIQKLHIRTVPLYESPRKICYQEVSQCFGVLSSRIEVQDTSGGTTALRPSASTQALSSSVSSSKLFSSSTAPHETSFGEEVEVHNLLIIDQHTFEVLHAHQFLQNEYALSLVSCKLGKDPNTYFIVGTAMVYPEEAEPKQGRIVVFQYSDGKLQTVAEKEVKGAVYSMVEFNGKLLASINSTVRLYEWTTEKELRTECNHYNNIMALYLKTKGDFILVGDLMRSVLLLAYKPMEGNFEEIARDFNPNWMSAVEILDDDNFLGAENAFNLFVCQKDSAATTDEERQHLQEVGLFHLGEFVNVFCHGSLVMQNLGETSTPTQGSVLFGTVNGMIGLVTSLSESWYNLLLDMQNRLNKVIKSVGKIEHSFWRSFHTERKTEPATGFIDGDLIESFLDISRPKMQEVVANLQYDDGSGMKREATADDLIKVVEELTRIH
Sequence of GSPT1 (P15170 whole entry): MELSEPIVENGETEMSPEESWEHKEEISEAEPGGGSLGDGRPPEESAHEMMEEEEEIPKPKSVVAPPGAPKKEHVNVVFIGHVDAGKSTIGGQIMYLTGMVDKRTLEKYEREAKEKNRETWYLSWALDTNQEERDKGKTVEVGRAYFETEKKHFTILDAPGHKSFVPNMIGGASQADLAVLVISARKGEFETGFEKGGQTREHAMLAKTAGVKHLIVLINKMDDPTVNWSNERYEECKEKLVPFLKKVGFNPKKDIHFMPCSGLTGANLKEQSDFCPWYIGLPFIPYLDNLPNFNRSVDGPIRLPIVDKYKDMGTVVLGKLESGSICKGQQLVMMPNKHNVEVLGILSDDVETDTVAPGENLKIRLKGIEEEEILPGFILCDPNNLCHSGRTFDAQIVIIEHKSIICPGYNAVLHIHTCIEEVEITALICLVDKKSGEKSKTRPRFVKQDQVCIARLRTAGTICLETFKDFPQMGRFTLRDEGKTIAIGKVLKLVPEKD
Sequence of GSPT1 (Q96SW2 whole entry): as the sequence (Q96SW2 whole entry) above
Sequence of GSPT1 (Q16531 whole entry partner): as the sequence (Q16531 whole entry partner) above

Structure (SMILES) | CK1α Ymin (CK1α) | DC50 (CK1α) | DC50 (GSPT1) | GSPT1 Ymin (GSPT1)
Cn1cc(-c2ccc3c(c2)CN(C2CCC(=O)NC2=O)C3=O)nc1-c1ccc2c(c1)CCC(=O)N2 (centres unmarked) [Example 678] | E (E = >25-75% remaining) | ≥ 25 nM | < 25 nM | F (F = >75-100% remaining)
CCCCc1ccc(-c2nc(-c3ccc4c(c3)CN(C3CCC(=O)NC3=O)C4=O)cn2C)s1 (centres unmarked) [Example 687] | D (D = >10- 25% remaining) | < 25 nM | < 25 nM | F (F = >75-100% remaining)
COc1ccc(Cl)c(-c2nc(-c3ccc4c(c3)CN(C3CCC(=O)NC3=O)C4=O)cn2C)c1 (centres unmarked) [Example 688] | C (C = 0-10% remaining) | < 25 nM | < 25 nM | F (F = >75-100% remaining)
Cn1cc(-c2ccc3c(c2)CN(C2CCC(=O)NC2=O)C3=O)nc1-c1cccc2c1CCC2 (centres unmarked) [Example 689] | C (C = 0-10% remaining) | < 25 nM | ≥ 25 nM | F (F = >75-100% remaining)
Cn1ncc(-c2ccc3c(c2)CN(C2CCC(=O)NC2=O)C3=O)c1C1=CCNCC1 (centres unmarked) [Example 690] | E (E = >25-75% remaining) | ≥ 25 nM | ≥ 25 nM | F (F = >75-100% remaining)
Cn1ncc(-c2ccc3c(c2)CN(C2CCC(=O)NC2=O)C3=O)c1C1=CCCC1 (centres unmarked) [Example 691] | E (E = >25-75% remaining) | < 25 nM | ≥ 25 nM | F (F = >75-100% remaining)
Cn1ncc(-c2ccc3c(c2)CN(C2CCC(=O)NC2=O)C3=O)c1C1=CCOCC1 (centres unmarked) [Example 693] | E (E = >25-75% remaining) | < 25 nM | ≥ 25 nM | F (F = >75-100% remaining)
Cn1ncc(-c2ccc3c(c2)CN(C2CCC(=O)NC2=O)C3=O)c1C1CCOCC1 (centres unmarked) [Example 694] | E (E = >25-75% remaining) | ≥ 25 nM | ≥ 25 nM | F (F = >75-100% remaining)
Cn1ncc(-c2ccc3c(c2)CN(C2CCC(=O)NC2=O)C3=O)c1C1=COCCC1 (centres unmarked) [Example 695] | E (E = >25-75% remaining) | < 25 nM | < 25 nM | F (F = >75-100% remaining)
Cn1ncc(-c2ccc3c(c2)CN(C2CCC(=O)NC2=O)C3=O)c1C1=CCC(c2ccccc2)CC1 (centres unmarked) [Example 696] | E (E = >25-75% remaining) | < 25 nM | ≥ 25 nM | F (F = >75-100% remaining)
Cn1ncc(-c2ccc3c(c2)CN(C2CCC(=O)NC2=O)C3=O)c1C1=CCCCCC1 (centres unmarked) [Example 697] | D (D = >10- 25% remaining) | < 25 nM | ≥ 25 nM | E (E = >25-75% remaining)
Cn1ncc(-c2ccc3c(c2)CN(C2CCC(=O)NC2=O)C3=O)c1C1=CCC(F)(F)CC1 (centres unmarked) [Example 698] | F (F = >75-100% remaining) | < 25 nM | ≥ 25 nM | F (F = >75-100% remaining)
Cn1ncc(-c2ccc3c(c2)CN(C2CCC(=O)NC2=O)C3=O)c1C1CCC(F)(F)CC1 (centres unmarked) [Example 699] | F (F = >75-100% remaining) | ≥ 25 nM | ≥ 25 nM | F (F = >75-100% remaining)
Cn1ncc(-c2ccc3c(c2)CN(C2CCC(=O)NC2=O)C3=O)c1C1=Cc2ccccc2C1 (centres unmarked) [Example 700] | E (E = >25-75% remaining) | < 25 nM | < 25 nM | F (F = >75-100% remaining)
Cn1ncc(-c2ccc3c(c2)CN(C2CCC(=O)NC2=O)C3=O)c1C1=Cc2ccccc2CC1 (centres unmarked) [Example 701] | E (E = >25-75% remaining) | ≥ 25 nM | ≥ 25 nM | F (F = >75-100% remaining)
Cn1ncc(-c2ccc3c(c2)CN(C2CCC(=O)NC2=O)C3=O)c1C1=CCN(CC(F)(F)F)CC1 (centres unmarked) [Example 702] | E (E = >25-75% remaining) | ≥ 25 nM | ≥ 25 nM | F (F = >75-100% remaining)
Cn1nc(-c2ccc3c(c2)CN(C2CCC(=O)NC2=O)C3=O)nc1N1[C@@H]2CCC[C@H]1CC2 (stereo partly drawn) [Example 706, 3-(5-(5-((1R,5S)-8-azabicyclo[3.2.1]octan-8-yl)-1-methyl-1H-1,2,4-triazol-3-yl)-1-oxoisoindolin-2-yl)piperidine-2,6-dione] | D (D = >10- 25% remaining) | < 25 nM | ≥ 25 nM | F (F = >75-100% remaining)
Cn1nc(-c2ccc3c(c2)CN(C2CCC(=O)NC2=O)C3=O)nc1N1CCC(C(F)(F)F)CC1 (centres unmarked) [Example 707, 3-(5-(1-methyl-5-(4-(trifluoromethyl)piperidin-1-yl)-1H-1,2,4-triazol-3-yl)-1-oxoisoindolin-2-yl)piperidine-2,6-dione] | D (D = >10- 25% remaining) | < 25 nM | ≥ 25 nM | F (F = >75-100% remaining)
C[C@H]1CCCCN1c1nc(-c2ccc3c(c2)CN(C2CCC(=O)NC2=O)C3=O)nn1C (stereo partly drawn) [Example 708, 3-(5-(1-methyl-5-((S)-2-methylpiperidin-1-yl)-1H-1,2,4-triazol-3-yl)-1-oxoisoindolin-2-yl)piperidine-2,6-dione] | D (D = >10- 25% remaining) | < 25 nM | ≥ 25 nM | F (F = >75-100% remaining)
C[C@@H]1CCCCN1c1nc(-c2ccc3c(c2)CN(C2CCC(=O)NC2=O)C3=O)nn1C (stereo partly drawn) [Example 709, 3-(5-(1-methyl-5-((R)-2-methylpiperidin-1-yl)-1H-1,2,4-triazol-3-yl)-1-oxoisoindolin-2-yl)piperidine-2,6-dione] | D (D = >10- 25% remaining) | < 25 nM | ≥ 25 nM | F (F = >75-100% remaining)

The next lines start with the values.

CK1α Ymin (CK1α) | DC50 (CK1α) | DC50 (GSPT1) | GSPT1 Ymin (GSPT1) | Structure (SMILES)
E (E = >25-75% remaining) | < 25 nM | ≥ 25 nM | F (F = >75-100% remaining) | Cc1ccc(N)cc1-c1nc(-c2ccc3c(c2)CN(C2CCC(=O)NC2=O)C3=O)cn1C (centres unmarked) [Example 674]
E (E = >25-75% remaining) | < 25 nM | < 25 nM | F (F = >75-100% remaining) | Cc1ccc(-c2nc(-c3ccc4c(c3)CN(C3CCC(=O)NC3=O)C4=O)cn2C)cc1F (centres unmarked) [Example 675]
E (E = >25-75% remaining) | < 25 nM | ≥ 25 nM | F (F = >75-100% remaining) | Cn1cc(-c2ccc3c(c2)CN(C2CCC(=O)NC2=O)C3=O)nc1-c1cccc2ccccc12 (centres unmarked) [Example 676]
E (E = >25-75% remaining) | < 25 nM | ≥ 25 nM | – | Cn1cc(-c2ccc3c(c2)CN(C2CCC(=O)NC2=O)C3=O)nc1-c1ccc(F)c(C#N)c1 (centres unmarked) [Example 677]
D (D = >10- 25% remaining) | < 25 nM | ≥ 25 nM | F (F = >75-100% remaining) | Cn1cc(-c2ccc3c(c2)CN(C2CCC(=O)NC2=O)C3=O)nc1-c1nn(C)c2ccccc12 (centres unmarked) [Example 679]
C (C = 0-10% remaining) | < 25 nM | ≥ 25 nM | E (E = >25-75% remaining) | Cn1cc(-c2ccc3c(c2)CN(C2CCC(=O)NC2=O)C3=O)nc1-c1ccc2c(c1)OCO2 (centres unmarked) [Example 680]
C (C = 0-10% remaining) | < 25 nM | < 25 nM | D (D = >10- 25% remaining) | Cn1cc(-c2ccc3c(c2)CN(C2CCC(=O)NC2=O)C3=O)nc1-c1cccc(OCc2ccccc2)c1 (centres unmarked) [Example 681]
C (C = 0-10% remaining) | < 25 nM | < 25 nM | F (F = >75-100% remaining) | Cn1cc2cc(-c3nc(-c4ccc5c(c4)CN(C4CCC(=O)NC4=O)C5=O)cn3C)ccc2n1 (centres unmarked) [Example 682]
E (E = >25-75% remaining) | < 25 nM | < 25 nM | F (F = >75-100% remaining) | COc1ccc(C#N)cc1-c1nc(-c2ccc3c(c2)CN(C2CCC(=O)NC2=O)C3=O)cn1C (centres unmarked) [Example 684]
C (C = 0-10% remaining) | < 25 nM | < 25 nM | F (F = >75-100% remaining) | Cn1cc(-c2ccc3c(c2)CN(C2CCC(=O)NC2=O)C3=O)nc1-c1ccnc2ccccc12 (centres unmarked) [Example 686]
